Patent publication US20240264150A1, “METHODS FOR ASSIGNING A PHENOTYPIC SIGNATURE FOR DIAGNOSTIC AND THERAPEUTIC APPLICATIONS” (DEUTSCHES ZENTRUM FÜR NEURODEGENERATIVE ERKRANKUNGEN E.V. …, priority 2020, published 2024)

Assays:
Type in all cases: cell-based, human
[1] = test system: inflammasome activation by LPS+ATP; assay: Benchmark experiment, present assay platform (HTRF cytokine release plus image-based multi-parametric readouts), LPS priming and LPS+ATP activation; conditions: for TNFa-positive cells percentage: LPS and LPS_Activator conditions, vs DMSO; for inflammasome activation / percentage of IL1beta-positive cells / IL1beta release: LPS+ATP (LPS_Activator); for IL1beta release: vs DMSO control
Text: (§1) FIG. 24: Added-Value-1. Higher precision and accuracy of the present technology compared to Luminex cytokine assays. We tested the IL1beta- and TNFalpha release performance on the present assay platform (integrated as HTRF assays from cisbio/PerkinElmer into the inventive workflow) (B) in comparison to the Luminex cytokine assay technology (A). […] (2) Due to its higher precision and accuracy, the inventive technology allowed to disclose distinct compound (Cmpd) effects on donor-specific responses which was not achieved by the Luminex technology despite its higher nominal assay ranges as indicated by the upper and lower LoD's (tables on the left in A, B). (3) Despite higher nominal assay ranges of Luminex cytokine tests compared to present technology cytokine release LoD's (dotted lines), donor-specific response ranges were solely resolved by the inventive technology and could not be identified by the Luminex assay. (4) Despite higher nominal assay ranges of Luminex cytokine tests compared to present technology cytokine release LoD's, the inventive technology covered a larger assay window as indicated by the ovals on the TNFa-release box plot y-axes in (A) and (B).
(§2) To benchmark the inventive technology in the context of established state-of-the-art cytokine assays in the field of innate immune response analyses, a product benchmarking experiment was conducted. Towards this end, a 34-plex, off-the-shelf Luminex cytokine assay kit was tested in comparison to the present assay platform which in this embodiment integrates cytokine release data with image-based readout analyses leading to increased knowledge and added scientific value.
(§3) In the benchmarking experiment, innate immune reactions were assessed by classical cytokine release assays, i.e. the Luminex assay technology, and compared to the present platform which allows an in-depth analysis of immune responses by the combination and integration of cytokine release data and image-based multi-parametric readouts. Since the present assay platform represents a functional assay, the following conditions were analyzed, untreated, LPS-priming and priming-activation by LPS+ATP. Furthermore, the effects of selected reference compounds on the innate immune responses were tested, i.e. CRID3/MCC950 (NLRP3 inflammasome inhibitor), P22077 (ubiquitin protease inhibitor), 4SC202/Domatinostat (class 1 HDAC inhibitor), MI-2 (MALT1 inhibitor, NLRP3 inhibitor), A438079 (P2X7 receptor antagonist), VX-765 (CASP1 inhibitor) and Z-VAD-OH-FMK (pan-CASP inhibitor). The selection of the reference compounds was based on compound-specific effects on captured phenotypes obtained by the present technology (Table 3). Captured phenotypes obtained by multi-parametric and image-based readout constitute an added value provided by the present technology.

[2] = test system: inflammasome activation by LPS+ATP; assay: Benchmark experiment, 34-plex Luminex cytokine assay; conditions: for IL1b release (Luminex): LPS+ATP
Text: as §1, §2, §3

PBMC = assay: De-risking of cyclooxygenase (COX)-modulators (pain-killers) in the PBMC test system: image-based and supernatant cytokine readouts; conditions: for alteration of the collective phenotypic signature: 54 COX-modulators, three independent experiments, normalized to untreated control
Procedure: 54 pain-killers were tested in three independent experiments. […] The results were normalized to the untreated control group. Image-based assay read outs: a) “Active”, ratio of cells presenting mounted inflammasome, b) “TNFaPosRate”, ratio of cells showing intracellular TNFalpha expression, c) “TNFa specs/cell”, number of TNFalpha spots within TNFalpha positive cells, d) “Cells”, total number of cells. Homogenous assay read outs: e) “TNFa see”, TNFalpha concentration in the supernatant in ng/ml, f) “IL1b”, IL1beta concentration in the supernatant in ng/ml.
54 compounds were tested, which are known as cyclooxygenase (COX)-Modulators. Most of the compounds were already on market or in drug development process. A unique collective phenotypic signature of this drug class was identified. There was no alteration of assay parameters, meaning that common Cox-modulators should have no effect on the innate immune response in the test system provided by the present invention. […] Bufexamac was withdrawn from market 2010 due to allergic reaction and was further proposed in 2017 as co-treatment agent (TNFa binder) for modulators of TNFa synthesis. […] Xanthohumol, a chalcone isolated from Humulus lupus, is currently in clinical trial phase 1. Currently, there is no information about induced adverse effects.
The adverse effects of all three compounds were not identified during the safety/toxicity assessment in preclinical lead optimization or in clinical trials. Current safety testing during preclinical drug development was not able to detect the adverse modulation of innate immune response.

Molecule | inflammasome activation ([1]; image-based) | percentage of IL1beta-positive cells ([1]; image-based) | IL1beta release [1] | IL1b release (Luminex) [2] | alteration of the collective phenotypic signature (PBMC) | further results
Clc1cccc(-c2nnnn2Cc2cccnc2)c1Cl [A-438079] | complete block | marked increase | block | block |  | TNFa-positive cells percentage [1]: no impact
CCCCOc1ccc(CC(=O)NO)cc1 [Bufexamac] |  |  |  |  | show alteration of the collective phenotypic signature | TNFa binder effect (PBMC): effect was proofed
CC(C)(O)c1coc(S(=O)(=O)NC(=O)Nc2c3c(cc4c2CCC4)CCC3)c1 [CRID3, CRID3/MCC950] | complete block | marked increase | complete block | block |  | 
COCCOc1nc(-c2ccc(Cl)c(Cl)c2)n(-c2ccc(NC(=O)CCl)cc2)n1 [MI-2] | complete block | marked increase | complete block | block |  | TNFa-positive cells percentage [1]: not affected; percentage of TNFa-multispot-positive cells ([1]; image-based): robust increase; TNFa release ([1]; present assay): partial block; TNFa release (Luminex) [2]: partial block of TNFa release with limited resolution
CC(C(=O)O)c1ccc(C(=O)c2cccs2)cc1 (centres unmarked) [Subrofen] |  |  |  |  | show alteration of the collective phenotypic signature | cytokine release (II. 1b) (PBMC; supernatant): strong decrease
COc1cc(O)c(CC=C(C)C)c(O)c1C(=O)/C=C/c1ccc(O)cc1 [Xanthohumol] |  |  |  |  | show alteration of the collective phenotypic signature | 
Z-VAD-OH-FMK | did not show any effect | low percentage | block | block |  | 
